Results taken from patent publication US11840541B2 (priority 2014, dated 2023).
Like-named read-outs stand apart in the source and are kept apart here.

Key:
Test in all cases: cell-based
[1] = biological target: T1, Human DOR (Homo sapiens, UniProt P41143)
T1 construct: expressed in transfected cells; host or cells: HEK-293T

[2] = biological target: T2, Human KOR (Homo sapiens, UniProt P41145)
T2 construct: expressed in transfected cells; host or cells: HEK-293T

[3] = biological target: T3, Human MOR (Homo sapiens, UniProt P35372)
T3 construct: expressed in transfected cells; host or cells: HEK-293T
T3 sequence (P35372 whole entry): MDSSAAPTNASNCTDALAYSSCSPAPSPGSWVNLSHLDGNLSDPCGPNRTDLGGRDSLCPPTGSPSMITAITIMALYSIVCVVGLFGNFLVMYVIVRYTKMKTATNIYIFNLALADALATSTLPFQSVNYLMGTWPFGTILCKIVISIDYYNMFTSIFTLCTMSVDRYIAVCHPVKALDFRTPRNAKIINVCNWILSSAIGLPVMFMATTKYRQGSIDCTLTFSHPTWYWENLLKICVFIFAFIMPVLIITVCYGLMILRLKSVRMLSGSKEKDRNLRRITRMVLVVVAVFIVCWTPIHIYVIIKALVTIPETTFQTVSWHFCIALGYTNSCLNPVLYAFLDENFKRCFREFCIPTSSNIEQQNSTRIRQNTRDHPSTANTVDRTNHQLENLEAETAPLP

[4] = read-out: EC50 at indicated opioid receptor, Human DOR
[5] = EC50 at indicated opioid receptor, Human MOR
[6] = EC50 at indicated opioid receptor, Human DOR
[7] = EC50 at indicated opioid receptor, Human KOR
[8] = EC50, induced BRET signal, Human DOR
[9] = EC50, induced BRET signal, Human KOR
[10] = EC50, induced BRET signal, Human MOR

T2 sequence (P41145 whole entry): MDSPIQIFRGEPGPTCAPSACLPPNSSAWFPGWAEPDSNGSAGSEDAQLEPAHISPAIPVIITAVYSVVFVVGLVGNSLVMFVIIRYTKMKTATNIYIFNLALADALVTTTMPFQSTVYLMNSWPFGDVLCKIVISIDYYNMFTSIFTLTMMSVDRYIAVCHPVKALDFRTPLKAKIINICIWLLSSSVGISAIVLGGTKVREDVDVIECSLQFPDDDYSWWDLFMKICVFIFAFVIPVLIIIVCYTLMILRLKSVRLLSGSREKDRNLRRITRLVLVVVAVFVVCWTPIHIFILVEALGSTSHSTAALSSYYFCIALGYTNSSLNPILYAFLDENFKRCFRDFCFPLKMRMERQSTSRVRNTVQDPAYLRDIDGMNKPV
T1 sequence (P41143 whole entry): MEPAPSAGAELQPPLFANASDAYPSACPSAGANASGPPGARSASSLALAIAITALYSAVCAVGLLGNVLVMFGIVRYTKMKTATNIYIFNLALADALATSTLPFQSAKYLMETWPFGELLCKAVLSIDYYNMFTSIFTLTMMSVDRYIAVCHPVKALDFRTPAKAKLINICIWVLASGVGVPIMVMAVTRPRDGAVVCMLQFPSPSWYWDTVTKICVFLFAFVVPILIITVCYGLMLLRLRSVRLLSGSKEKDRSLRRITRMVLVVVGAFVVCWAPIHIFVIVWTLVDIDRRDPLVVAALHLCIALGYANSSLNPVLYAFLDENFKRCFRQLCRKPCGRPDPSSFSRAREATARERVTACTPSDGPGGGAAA

`CCC1CC2CC3c4oc5ccc(OC)cc5c4CCN(C2)C13` (single isomer, unassigned) [Compound 34c] gave an EC50 [1, 4] of over 100 µM, an EC50 ([2]; read-out: EC50 at indicated opioid receptor, Human KOR) of over 10 µM and an EC50 [3, 5] of over 10 µM.
`CCC1CC2CC3c4oc5ccc(OC)cc5c4CCN(C2)C13` (single isomer, unassigned) [Compound 34d] gave an EC50 [1, 6] of over 100 µM, an EC50 [2, 7] of over 10 µM and an EC50 [3, 5] of over 100 µM.
For `CCC1CC2(C)CC3c4oc5ccc(O)cc5c4CCN(C2)C13` (single isomer, unassigned) [Compound 60b], the EC50 ([1]; EC50, Human DOR) was under 10 µM, the EC50 ([2]; read-out: EC50, Human KOR) was under 10 µM and the EC50 ([3]; read-out: EC50, Human MOR) was under 10 µM.
`CCC1CC2(C)CC3c4oc5ccc(O)cc5c4CCN(C2)C13` (single isomer, unassigned) [Compound 60c] gave an EC50 ([1]; EC50, Human DOR) of over 10 µM, an EC50 ([2]; EC50, Human KOR) of under 10 µM and an EC50 ([3]; EC50, Human MOR) of under 10 µM.
`CCC1CC2CC3c4oc5ccc(O)cc5c4C[C@H](C)N(C2)C13` (single isomer, unassigned) [α-exo-52e] was tested, and the Emax ([1]; read-out: Emax in parentheses, Human DOR) was 98%, the Emax ([2]; read-out: Emax in parentheses, Human KOR) was 88% and the “EC50 (μM) with Emax in parentheses, Human MOR” value [3] was 0.40 μM ± 0.056 (98%).
With `CCC1CC2CC3c4oc5ccc(O)cc5c4C[C@H](C)N(C2)C13` (single isomer, unassigned) [α-exo-52f] the EC50 [1, 6] was over 100 µM, the “EC50 with Emax in parentheses” value [2] was 0.14 μM ± 0.006 (72%) and the “EC50 (μM) with Emax in parentheses, Human MOR” value [3] was 0.48 μM ± 0.20 (50%).
`CCC1CC2CC3c4oc5ccccc5c4CCN(C2)C13` (stereo not drawn) [Compound 34a, 7-ethyl-6,6a,7,8,9,10,12,13-octahydro-6,9-methanobenzofuro[2,3-d] pyrido[1,2-a]azepine] showed an EC50 [1, 6] of over 100 µM, an EC50 [2, 7] of over 10 µM and an EC50 [3, 5] of over 100 µM.
Work on `CCCC1CC2CC3c4oc5ccc(OC)cc5c4CCN(C2)C13` (stereo not drawn) [Compound 34e] yielded an EC50 [1, 6] of over 100 µM, an EC50 [2, 7] of over 100 µM and an EC50 [3, 5] of over 10 µM.
Work on `CCCC1CC2CC3c4oc5ccc(OC)cc5c4CCN(C2)C13` (stereo not drawn) [Compound 34f] yielded an EC50 [1, 4] of over 100 µM, an EC50 [2, 7] of over 10 µM and an EC50 [3, 5] of over 100 µM.
`COc1ccc2oc3c(c2c1)CCN1CC2CCC1C3C2` (stereo not drawn) [Compound 34h] gave an EC50 [1, 6] of over 100 µM, an EC50 [2, 7] of over 10 µM and an EC50 [3, 5] of over 100 µM.
Work on `CCCCC1CC2CC3c4oc5ccc(OC)cc5c4CCN(C2)C13` (stereo not drawn) [Compound 34i] yielded an EC50 [1, 6] of over 100 µM, an EC50 [2, 7] of over 10 µM and an EC50 [3, 5] of over 10 µM.
`CCC1CC2CC3c4oc5ccc(F)cc5c4CCN(C2)C13` (stereo not drawn) [Compound 34j] showed an EC50 [1, 6] of over 100 µM, an EC50 [2, 7] of over 10 µM and an EC50 [3, 5] of over 10 µM.
With `CCC1CC2CC3c4oc5cc(OC)ccc5c4CCN(C2)C13` (stereo not drawn) [Compound 34k] the EC50 [1, 6] was over 10 µM, the EC50 [2, 7] was under 10 µM and the EC50 [3, 5] was under 10 µM.
For `CCC1CC2CC3c4oc5cc(F)c(OC)cc5c4CCN(C2)C13` (stereo not drawn) [Compound 34l], the EC50 [1, 6] was over 100 µM, the EC50 [2, 7] was over 10 µM and the EC50 [3, 5] was over 100 µM.
For `COCC1CC2CC3c4oc5ccc(OC)cc5c4CCN(C2)C13` (stereo not drawn) [Compound 34m], the EC50 [1, 6] was over 10 µM, the EC50 [2, 7] was over 10 µM and the EC50 [3, 5] was over 10 µM.
For `COc1ccc2oc3c(c2c1)CCN1CC2CC(c4ccccc4)C1C3C2` (stereo not drawn) [Compound 34n], the EC50 [1, 6] was over 100 µM, the EC50 [2, 7] was over 10 µM and the EC50 [3, 5] was over 100 µM.
Work on `CCC1CC2CC3c4sc5ccccc5c4CCN(C2)C13` (stereo not drawn) [Compound 34q, 7-ethyl-6,6a,7,8,9,10,12,13-octahydro-6,9-methanobenzo[4,5] thieno[2,3-d]pyrido[1,2-a]azepine] yielded an EC50 [1, 6] of over 100 µM, an EC50 [2, 7] of over 10 µM and an EC50 [3, 5] of over 100 µM.
In the case of `CCC1CC2CC3c4sc5ccc(OC)cc5c4CCN(C2)C13` (stereo not drawn) [Compound 34r], the EC50 [1, 6] is reported as over 100 µM, the EC50 [2, 7] is reported as over 10 µM and the EC50 [3, 5] is reported as over 10 µM.
For `CCC1CC2CC3c4oc5ccc(O)cc5c4CCN(C2)C13` (stereo not drawn) [Compound 35a], the “agonist activity at DOR (in words)” value [1] was “full agonist”, the EC50 [1, 8] was 4.5 ± 1.2 µM and the EC50 [1, 6] was under 10 µM. The “agonist activity at KOR (in words)” value [2] was “full agonist”, the EC50 [2, 9] was 0.66 ± 0.13 µM and the EC50 [2, 7] was under 10 µM. The “agonist activity at MOR (in words)” value [3] was “full agonist”, the EC50 [3, 10] was 0.98 ± 0.14 µM and the EC50 [3, 5] was under 10 µM.
`CCCC1CC2CC3c4oc5ccc(O)cc5c4CCN(C2)C13` (stereo not drawn) [Compound 35c] was tested, and the EC50 [1, 6] was under 10 µM, the EC50 [2, 7] was under 10 µM and the EC50 [3, 5] was under 10 µM.
In the case of `CCCC1CC2CC3c4oc5ccc(O)cc5c4CCN(C2)C13` (stereo not drawn) [Compound 35d], the “agonist activity at DOR (in words)” value [1] is reported as “agonist activity”, the EC50 [1, 8] is reported as 5.7 ± 5.1 µM and the “agonist activity at KOR (in words)” value [2] is reported as “agonist activity”. The EC50 [2, 9] was 0.297 ± 0.03 µM, the “agonist activity at MOR (in words)” value [3] was “agonist activity” and the EC50 [3, 10] was 0.922 ± 0.282 µM.
For `Oc1ccc2oc3c(c2c1)CCN1CC2CCC1C3C2` (stereo not drawn) [Compound 35e], the EC50 [1, 6] was over 100 µM, the EC50 [2, 7] was under 10 µM and the EC50 [3, 5] was under 10 µM.
